In ChEMBL document CHEMBL1136905, “Substituted isoxazole analogs of farnesoid X receptor (FXR) agonist GW4064” (Bioorg Med Chem Lett, 2009):

Legend:
[1] = target: T1, Bile acid receptor (Homo sapiens) (UniProt Q96RI1); test: Agonist activity at human FXR assessed as SRC1 peptide interaction with receptor ligand binding domain by FRET assay relative to GW-4064
T1 sequence (whole entry): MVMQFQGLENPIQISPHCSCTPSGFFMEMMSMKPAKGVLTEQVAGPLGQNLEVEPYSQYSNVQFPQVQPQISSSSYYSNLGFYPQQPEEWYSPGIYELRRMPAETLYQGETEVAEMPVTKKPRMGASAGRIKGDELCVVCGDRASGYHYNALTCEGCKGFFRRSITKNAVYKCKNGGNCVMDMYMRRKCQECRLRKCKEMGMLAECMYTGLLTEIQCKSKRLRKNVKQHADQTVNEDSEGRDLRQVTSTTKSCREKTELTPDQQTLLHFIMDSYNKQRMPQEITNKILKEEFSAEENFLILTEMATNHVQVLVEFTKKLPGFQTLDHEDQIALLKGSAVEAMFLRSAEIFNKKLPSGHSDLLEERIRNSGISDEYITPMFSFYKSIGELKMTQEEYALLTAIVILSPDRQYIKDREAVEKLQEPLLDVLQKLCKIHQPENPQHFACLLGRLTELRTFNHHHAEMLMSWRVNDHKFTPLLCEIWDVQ

Bile acid receptor [2] = target: T2, Bile acid receptor (Homo sapiens, UniProt Q96RI1); test: Agonist activity at human FXR transfected in african green monkey CV1 cells by luciferase reporter gene transient transfection assay; assay type: functional, cell-based, CV-1
T2 sequence (Q96RI1 whole entry): T1 sequence (whole entry)

[3] = Selectivity ratio of XC50 for LRH to EC50 for human FXR
Bile acid receptor [4] = target: T2, Bile acid receptor; test: Agonist activity at human FXR assessed as SRC1 peptide interaction with receptor ligand binding domain by FRET assay
[5] = target: T1, Bile acid receptor (Homo sapiens); test: Agonist activity at human FXR transfected in african green monkey CV1 cells by luciferase reporter gene transient transfection assay relative to GW-4064; assay type: functional, cell-based; conditions: CV-1
[6] = Selectivity ratio of XC50 for LXRalpha to EC50 for human FXR
[7] = Selectivity ratio of XC50 for LXRbeta to EC50 for human FXR
[8] = Selectivity ratio of XC50 for PXR to EC50 for human FXR
[9] = Selectivity ratio of XC50 for RORalpha to EC50 for human FXR
[10] = target: T3, Nuclear receptor subfamily 5 group A member 2 (Homo sapiens, UniProt O00482); test: Activity at LRH assessed as coactivator peptide interaction with receptor ligand binding domain by FRET assay
T3 sequence (O00482 whole entry, the tested form may be a part): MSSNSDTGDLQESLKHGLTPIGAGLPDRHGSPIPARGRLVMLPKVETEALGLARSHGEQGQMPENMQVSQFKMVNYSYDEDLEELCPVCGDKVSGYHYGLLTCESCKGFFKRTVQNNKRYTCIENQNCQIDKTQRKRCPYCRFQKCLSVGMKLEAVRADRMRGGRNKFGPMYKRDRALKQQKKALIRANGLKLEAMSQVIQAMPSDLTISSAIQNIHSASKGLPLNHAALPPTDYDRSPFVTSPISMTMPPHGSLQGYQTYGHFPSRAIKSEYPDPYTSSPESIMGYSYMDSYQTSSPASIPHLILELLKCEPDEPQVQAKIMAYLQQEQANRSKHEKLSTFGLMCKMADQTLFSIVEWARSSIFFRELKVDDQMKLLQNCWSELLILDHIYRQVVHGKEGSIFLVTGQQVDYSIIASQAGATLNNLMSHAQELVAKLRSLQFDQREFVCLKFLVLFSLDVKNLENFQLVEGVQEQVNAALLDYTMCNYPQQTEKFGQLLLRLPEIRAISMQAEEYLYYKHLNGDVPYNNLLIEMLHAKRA

[11] = target: T4, Oxysterols receptor LXR-alpha (Homo sapiens, UniProt Q13133); test: Activity at LXRalpha assessed as coactivator peptide interaction with receptor ligand binding domain by FRET assay
T4 sequence (Q13133 whole entry): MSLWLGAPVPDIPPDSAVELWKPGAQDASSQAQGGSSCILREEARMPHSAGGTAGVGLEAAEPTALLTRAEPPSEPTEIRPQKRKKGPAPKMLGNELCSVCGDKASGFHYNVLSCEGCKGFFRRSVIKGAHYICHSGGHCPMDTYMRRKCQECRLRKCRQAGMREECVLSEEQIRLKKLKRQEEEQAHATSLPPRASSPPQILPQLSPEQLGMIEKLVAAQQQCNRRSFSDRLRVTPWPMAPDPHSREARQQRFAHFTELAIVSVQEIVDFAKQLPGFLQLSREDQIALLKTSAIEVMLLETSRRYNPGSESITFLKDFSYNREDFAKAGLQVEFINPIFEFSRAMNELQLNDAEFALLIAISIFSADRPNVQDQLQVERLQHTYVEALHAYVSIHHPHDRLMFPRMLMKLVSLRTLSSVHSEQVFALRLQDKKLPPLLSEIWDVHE

[12] = target: T5, Oxysterols receptor LXR-beta (Homo sapiens, UniProt P55055); test: Activity at LXRbeta assessed as coactivator peptide interaction with receptor ligand binding domain by scintillation proximity assay
T5 sequence (P55055 whole entry): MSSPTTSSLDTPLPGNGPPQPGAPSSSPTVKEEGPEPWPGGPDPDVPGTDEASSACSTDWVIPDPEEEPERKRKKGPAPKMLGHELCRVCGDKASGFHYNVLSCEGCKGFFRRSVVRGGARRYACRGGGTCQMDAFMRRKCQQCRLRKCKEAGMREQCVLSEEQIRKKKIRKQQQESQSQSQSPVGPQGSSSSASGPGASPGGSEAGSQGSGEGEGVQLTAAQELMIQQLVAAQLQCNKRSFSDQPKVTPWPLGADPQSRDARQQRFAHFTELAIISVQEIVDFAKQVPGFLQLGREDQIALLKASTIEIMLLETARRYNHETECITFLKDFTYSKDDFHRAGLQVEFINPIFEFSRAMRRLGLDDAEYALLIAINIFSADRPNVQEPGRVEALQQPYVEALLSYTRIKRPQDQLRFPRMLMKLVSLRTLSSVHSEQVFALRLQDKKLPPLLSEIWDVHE

[13] = target: T6, PXR (Nuclear receptor subfamily 1 group I member 2) (Homo sapiens, UniProt O75469); test: Activity at PXR assessed as coactivator peptide interaction with receptor ligand binding domain by scintillation proximity assay
T6 sequence (O75469 whole entry): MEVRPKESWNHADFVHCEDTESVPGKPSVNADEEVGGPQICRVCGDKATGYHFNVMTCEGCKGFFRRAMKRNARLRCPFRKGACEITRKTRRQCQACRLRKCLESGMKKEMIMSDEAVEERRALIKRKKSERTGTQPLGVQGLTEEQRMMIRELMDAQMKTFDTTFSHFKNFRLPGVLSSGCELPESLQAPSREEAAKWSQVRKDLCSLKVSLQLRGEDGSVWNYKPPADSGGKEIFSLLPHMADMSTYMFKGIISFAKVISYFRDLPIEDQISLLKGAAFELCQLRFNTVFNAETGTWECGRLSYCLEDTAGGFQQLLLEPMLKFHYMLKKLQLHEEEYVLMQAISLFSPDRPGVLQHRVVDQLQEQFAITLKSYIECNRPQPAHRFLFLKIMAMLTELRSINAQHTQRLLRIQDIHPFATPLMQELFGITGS

[14] = target: T7, Nuclear receptor ROR-alpha (Homo sapiens, UniProt P35398); test: Activity at RORalpha assessed as coactivator peptide interaction with receptor ligand binding domain by FRET assay
T7 sequence (P35398 whole entry): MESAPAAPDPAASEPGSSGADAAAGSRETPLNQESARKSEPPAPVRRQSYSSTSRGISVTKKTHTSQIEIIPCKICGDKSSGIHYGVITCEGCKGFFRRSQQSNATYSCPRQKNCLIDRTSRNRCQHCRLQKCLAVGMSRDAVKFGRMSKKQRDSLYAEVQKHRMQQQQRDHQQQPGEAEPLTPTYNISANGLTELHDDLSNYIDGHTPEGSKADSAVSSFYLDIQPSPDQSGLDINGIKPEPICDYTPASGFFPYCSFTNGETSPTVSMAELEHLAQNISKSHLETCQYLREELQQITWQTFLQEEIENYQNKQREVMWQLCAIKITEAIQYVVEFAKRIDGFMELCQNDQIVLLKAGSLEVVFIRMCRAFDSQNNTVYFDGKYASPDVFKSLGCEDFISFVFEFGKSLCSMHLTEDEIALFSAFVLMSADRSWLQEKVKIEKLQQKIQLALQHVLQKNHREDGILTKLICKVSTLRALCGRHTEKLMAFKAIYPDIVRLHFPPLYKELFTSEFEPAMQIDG

[15] = target: T3, Nuclear receptor subfamily 5 group A member 2; test: Activity at LRH assessed as coactivator peptide interaction with receptor ligand binding domain by FRET assay relative to standard control
[16] = target: T8, Oxysterols receptor LXR-alpha (Homo sapiens) (UniProt Q13133); test: Activity at LXRalpha assessed as coactivator peptide interaction with receptor ligand binding domain by FRET assay relative to standard control
T8 sequence (whole entry): T4 sequence (Q13133 whole entry)

[17] = target: T9, Oxysterols receptor LXR-beta (Homo sapiens) (UniProt P55055); test: Activity at LXRbeta assessed as coactivator peptide interaction with receptor ligand binding domain by scintillation proximity assay relative to standard control
T9 sequence (whole entry): T5 sequence (P55055 whole entry)

[18] = target: T6, PXR (Nuclear receptor subfamily 1 group I member 2); test: Activity at PXR assessed as coactivator peptide interaction with receptor ligand binding domain by scintillation proximity assay relative to standard control; conditions: read-out: %max

CC(C)c1onc(C[S+]([O-])c2c(Cl)cccc2Cl)c1COc1ccc(/C=C/c2cccc(C(=O)O)c2)c(Cl)c1 (stereo not drawn)
%max [1]: 110%
EC50 (Bile acid receptor [2]): 72 nM
Ratio [3]: 100
EC50 (Bile acid receptor [4]): 28 nM
%max [5]: 100%
Ratio [6]: 100
Ratio [7]: 100
Ratio [8]: 100
Ratio [9]: 100
XC50 [10]: 4200 nM
XC50 [11]: 1400 nM
XC50 [12]: 2500 nM
XC50 [13]: 960 nM
XC50 [14]: > 10000 nM
%max [15]: 46%
%max [16]: 33%
%max [17]: 101%
Emax [18]: 100%
